Results published in patent US12344595B2, “2-amino-n-phenyl-nicotinamides as NAV1.8 inhibitors” (Merck Sharp & Dohme LLC, priority 2018, dated 2025).

These compounds were tested against human Nav1.8 (Homo sapiens (Human), UniProt Q9Y5Y9) (assay: Nav1.8 Qube automated patch-clamp assay). Conditions: Nav1.8 Qube Assay; human Nav1.8 channels stably expressed in HEK 293 cells.
Type: cell-based
Protocol: Qube® Assay Experimental Procedure
Compounds were tested on human Nav1.8 and Nav1.5 channels stably expressed in human embryo kidney (HEK) 293 cells. Sodium current measurements on Qube® were conducted as follows: automated 384-well patch-clamp assays on the Qube® platform (Sophion Biosciences) were used to measure the inhibition of sodium flow through human Nav1.8 and Nav1.5 channels. Whole-cell voltage-clamp recordings were performed in QChips® (Sophion Biosciences) at room temperature. Nav1.8 current measurements on Qube® were obtained as follows: Nav1.8 currents were elicited with a 10 second 1 Hertz (Hz) pulse train from a holding potential of −90 millivolts (mV), delivered to the cells once per minute in the control condition (DMSO only) and after compound addition. The 1 hertz pulse train stimulation consisted of ten test pulses to 10 millivolt (mV) for 20 milliseconds (ms), each of which was followed by a 980 millisecond repolarization to −67 millivolts. At the end of the 10 second pulse train stimulation, a 5 second hyperpolarization step to −100 millivolt (mV) was used to recover Nav1.8 from fast inactivation. The peak currents elicited by the 1st and 10th test pulses were used to determine IC50 values for resting inhibition and inactivated state inhibition. Nav1.5 current measurements on Qube® were obtained as follows: Nav1.5 currents were elicited with a 20 second 3 Hertz pulse train in the control condition (DMSO only) and after compound addition. The pulse train consisted of sixty 20 millisecond test pulses to 0 millivolt from a holding potential of −80 millivolt (mV). The average peak currents elicited by the last 3 test pulses were used to determine IC50 values for Nav1.5 inhibition.
The following buffers were used for the Qube® recordings: External buffer for Nav1.8 Qube® recording: 150 NaCl, 2 CaCl2, 5 KCl, 1 Mg Cl2, 10 HEPES, 12 Dextrose; External buffer for Qube® Nav1.5 recording: 120 N-Methyl-D-Glucamine, 40 NaCl, 1 KCl, 2.7 CaCl2, 5 HEPES, 0.5 MgCl2; and Internal buffer for Qube® recording: 120 CsF, 30 CsCl, 10 EGTA, 5 HEPES, 5 NaF, 2 MgCl2.
For all Qube® experiments offline analysis was used to determine percent inhibition as a function of drug concentration. IC50 values were determined by fitting to the Hill equation.

Sequence of human Nav1.8 (Q9Y5Y9 whole entry): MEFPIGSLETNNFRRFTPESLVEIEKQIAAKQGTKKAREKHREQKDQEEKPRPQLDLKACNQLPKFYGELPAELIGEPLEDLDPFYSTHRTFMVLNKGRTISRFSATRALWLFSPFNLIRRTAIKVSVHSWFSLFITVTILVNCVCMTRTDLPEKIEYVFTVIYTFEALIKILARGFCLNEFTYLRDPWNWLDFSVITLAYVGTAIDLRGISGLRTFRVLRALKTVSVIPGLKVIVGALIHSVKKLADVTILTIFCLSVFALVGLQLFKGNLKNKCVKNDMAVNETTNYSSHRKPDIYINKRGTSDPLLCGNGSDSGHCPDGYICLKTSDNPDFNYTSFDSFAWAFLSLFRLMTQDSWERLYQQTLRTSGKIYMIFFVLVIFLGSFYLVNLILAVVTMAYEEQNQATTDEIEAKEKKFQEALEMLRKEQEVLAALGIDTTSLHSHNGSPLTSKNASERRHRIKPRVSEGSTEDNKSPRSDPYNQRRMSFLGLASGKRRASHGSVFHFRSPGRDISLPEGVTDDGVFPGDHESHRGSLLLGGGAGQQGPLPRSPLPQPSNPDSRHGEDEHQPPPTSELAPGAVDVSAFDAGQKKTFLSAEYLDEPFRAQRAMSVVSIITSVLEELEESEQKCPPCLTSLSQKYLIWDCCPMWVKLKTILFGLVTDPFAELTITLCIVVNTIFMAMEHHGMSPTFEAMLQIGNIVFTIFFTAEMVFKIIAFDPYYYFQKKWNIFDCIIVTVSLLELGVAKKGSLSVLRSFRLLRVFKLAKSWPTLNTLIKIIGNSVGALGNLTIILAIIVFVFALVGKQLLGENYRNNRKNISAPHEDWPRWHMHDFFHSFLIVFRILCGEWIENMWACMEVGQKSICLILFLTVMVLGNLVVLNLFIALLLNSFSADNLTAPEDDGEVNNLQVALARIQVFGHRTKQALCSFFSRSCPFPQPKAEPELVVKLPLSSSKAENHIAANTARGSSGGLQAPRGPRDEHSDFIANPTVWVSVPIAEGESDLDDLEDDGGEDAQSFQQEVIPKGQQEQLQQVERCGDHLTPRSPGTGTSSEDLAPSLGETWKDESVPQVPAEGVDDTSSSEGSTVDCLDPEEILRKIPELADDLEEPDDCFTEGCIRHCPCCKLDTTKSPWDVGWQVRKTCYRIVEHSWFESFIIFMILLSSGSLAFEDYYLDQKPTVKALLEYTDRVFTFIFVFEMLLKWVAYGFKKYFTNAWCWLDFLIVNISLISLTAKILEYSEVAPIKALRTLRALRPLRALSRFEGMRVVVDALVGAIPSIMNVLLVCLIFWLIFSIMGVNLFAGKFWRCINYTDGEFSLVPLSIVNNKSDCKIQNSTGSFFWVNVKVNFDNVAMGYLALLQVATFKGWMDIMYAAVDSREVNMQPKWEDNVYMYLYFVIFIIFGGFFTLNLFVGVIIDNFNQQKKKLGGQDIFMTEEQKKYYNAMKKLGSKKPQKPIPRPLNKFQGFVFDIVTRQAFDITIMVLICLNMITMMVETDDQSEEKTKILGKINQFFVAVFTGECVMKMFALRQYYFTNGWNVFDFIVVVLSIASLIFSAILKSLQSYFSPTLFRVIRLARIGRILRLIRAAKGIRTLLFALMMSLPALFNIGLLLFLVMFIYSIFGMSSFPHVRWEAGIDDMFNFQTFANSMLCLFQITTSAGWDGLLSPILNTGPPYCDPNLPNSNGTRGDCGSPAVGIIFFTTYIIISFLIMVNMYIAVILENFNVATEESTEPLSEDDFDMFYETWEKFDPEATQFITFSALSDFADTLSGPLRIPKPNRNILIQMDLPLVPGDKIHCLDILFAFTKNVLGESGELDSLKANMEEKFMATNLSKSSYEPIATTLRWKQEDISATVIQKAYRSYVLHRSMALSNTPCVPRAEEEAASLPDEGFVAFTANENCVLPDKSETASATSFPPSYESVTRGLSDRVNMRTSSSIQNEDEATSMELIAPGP

SMILES	IC50 [nM]
Cc1nc(N2CCC(F)(F)CC2)c(C(=O)Nc2cccc(C(N)=O)c2)c(C)c1Cl [Example 16, N-(3-carbamoyl-phenyl)-5-chloro-2-(4,4-difluoro-1-piperidyl)-4,6-dimethyl-pyridine-3-carboxamide]	24
NS(=O)(=O)c1cccc(NC(=O)c2cc(Cl)cnc2N2CCCCCC2)c1 [Example 31, 2-(azepan-1-yl)-5-chloro-N-(3-sulfamoyl-phenyl)pyridine-3-carboxamide]	22
Cc1c(F)c(Cl)nc(N2CCCCCC2)c1C(=O)Nc1cccc(S(N)(=O)=O)c1 [Example 3, 2-(azepan-1-yl)-6-chloro-5-fluoro-4-methyl-N-(3-sulfamoyl-phenyl)pyridine-3-carboxamide]	7.6
N#Cc1cccc(NC(=O)c2cc(C(F)(F)F)cnc2N2CCCCCC2)c1 [Example 21, 2-(azepan-1-yl)-N-(3-cyanophenyl)-5-(trifluoromethyl)pyridine-3-carboxamide]	254
C[Si](C)(C)c1cnc(N2CCC3(CC2)COC3)c(C(=O)Nc2cccc(S(N)(=O)=O)c2)c1 [Example 87, 2-(2-oxa-7-azaspiro-[3.5]nonan-7-yl)-N-(3-sulfamoylphenyl)-5-(trimethylsilyl)-nicotinamide]	7880
NS(=O)(=O)c1cccc(NC(=O)c2cc(C(F)(F)F)cnc2N2CCCC[C@H](F)C2)c1 [Example 54, 2-[(3S)-3-fluoroazepan-1-yl]-N-(3-sulfamoyl-phenyl)-5-(trifluoro-methyl)pyridine-3-carboxamide]	338
COc1ccc(C(=O)Nc2cccc(C(N)=O)c2)c(N2CCCC(F)(F)CC2)n1 [Example 18, N-(3-carbamoyl-phenyl)-2-(4,4-difluoroazepan-1-yl)-6-methoxy-pyridine-3-carboxamide]	52
Cc1nc(N2CCCCC2)c(C(=O)Nc2cccc(C(N)=O)c2)c(C)c1Cl [Example 19, N-(3-carbamoyl-phenyl)-5-chloro-4,6-dimethyl-2-(1-piperidyl)pyridine-3-carboxamide]	295
Cc1nc(N2CCC3(CC2)CC3)c(C(=O)Nc2cccc(C(N)=O)c2)c(C)c1Cl [Example 13, 2-(6-azaspiro[2.5]-octan-6-yl)-N-(3-carbamoyl-phenyl)-5-chloro-4,6-dimethyl-pyridine-3-carboxamide]	13
NS(=O)(=O)c1cccc(NC(=O)c2cc(C(F)(F)F)cnc2N2CCC(F)(F)CC2)c1 [Example 1, 2-(4,4-difluoropiperidin-1-yl)-N-(3-sulfamoylphenyl)-5-(trifluoromethyl)nicotinamide]	47
NS(=O)(=O)c1cccc(NC(=O)c2cc(C(F)(F)F)cnc2N2CC3CCC(C3)C2)c1 (racemic) [Example 45, 2-[rac-3-azabicyclo[3.2.1]octan-3-yl]-N-(3-sulfamoyl-phenyl)-5-(trifluoro-methyl)pyridine-3-carboxamide]	12
CC(C)(C)c1ccc(C(=O)Nc2cccc(S(C)(=O)=O)c2)c(N2CCCCC2)n1 [Example 41, 6-tert-butyl-N-(3-methylsulfonylphenyl)-2-(1-piperidyl)pyridine-3-carboxamide]	4630
NS(=O)(=O)c1cccc(NC(=O)c2cc(F)cnc2N2CCCCC2)c1 [Example 6, 5-fluoro-2-(1-piperidyl)-N-(3-sulfamoyl-phenyl)pyridine-3-carboxamide]	8320
NS(=O)(=O)c1cccc(NC(=O)c2cc(C(F)(F)F)cnc2N2C3CCC2CC3)c1 [Example 139, 2-(7-azabicyclo[2.2.1]heptan-7-yl)-N-(3-sulfamoyl-phenyl)-5-(trifluoro-methyl)pyridine-3-carboxamide]	3460

The next lines start with the values.

IC50 [nM]	SMILES
14	CC12CCN(c3ncc(C(F)(F)F)cc3C(=O)Nc3cccc(S(N)(=O)=O)c3)CC1C2(F)F (single isomer, unassigned) [Example 128, 2-[(1R,6R or 1S,6S)-7,7-difluoro-6-methyl-3-azabicyclo[4.1.0]heptan-3-yl]-N-(3-sulfamoyl-phenyl)-5-(trifluoro-methyl)-pyridine-3-carboxamide]
290	Cc1ccnc(N2CCCCCC2)c1C(=O)Nc1cccc(S(N)(=O)=O)c1 [Example 175, 2-(azepan-1-yl)-4-methyl-N-(3-sulfamoyl-phenyl)pyridine-3-carboxamide]
60	CS(=O)(=O)c1cccc(NC(=O)c2ccc(C(F)(F)F)nc2N2CCCCCC2)c1 [Example 82, 2-(azepan-1-yl)-N-(3-(methylsulfonyl)phenyl)-6-(trifluoro-methyl)nicotinamide]
72	CC1CN(c2ncc(C(F)(F)F)cc2C(=O)Nc2ccc3c(c2)S(=O)(=O)NC3)CCC1(F)F (single isomer, unassigned) [Example 112, 2-[(3R or 3S)-4,4-difluoro-3-methyl-1-piperidyl]-N-(1,1-dioxo-2,3-dihydro-1,2-benzothiazol-6-yl)-5-(trifluoromethyl) pyridine-3-carboxamide]
778	CC(C)S(=O)(=O)c1cccc(NC(=O)c2cc(C(F)(F)F)cnc2N2CCCCCC2)c1 [Example 117, 2-(azepan-1-yl)-N-(3-isopropylsulfonylphenyl)-5-(trifluoromethyl)-pyridine-3-carboxamide]
737	NS(=O)(=O)c1cccc(NC(=O)c2cc(C(F)(F)F)cnc2N2CCC(F)(F)C2)c1 [Example 60, 2-(3,3-difluoropyrrolidin-1-yl)-N-(3-sulfamoyl-phenyl)-5-(trifluoromethyl) pyridine-3-carboxamide]
6610	NS(=O)(=O)c1cccc(NC(=O)c2cc(C(F)(F)F)cnc2N2CCC3(CCCO3)CC2)c1 [Example 72, 2-(1-oxa-8-azaspiro[4.5]decan-8-yl)-N-(3-sulfamoyl-phenyl)-5-(trifluoro-methyl)pyridine-3-carboxamide]
567	NS(=O)(=O)c1cc(NC(=O)c2cc(C(F)(F)F)cnc2N2CCCCC2)ccc1F [Example 115, N-(4-fluoro-3-sulfamoyl-phenyl)-2-(1-piperidyl)-5-(trifluoro-methyl)pyridine-3-carboxamide]
227	CS(=O)(=O)c1cccc(NC(=O)c2cc(C(F)(F)F)cnc2N2CCC(F)CC2)c1 [Example 100, 2-(4-fluoro-1-piperidyl)-N-(3-methylsulfonylphenyl)-5-(trifluoromethyl)-pyridine-3-carboxamide]
7330	CS(=O)(=O)c1cccc(NC(=O)c2cc(C(F)(F)F)cnc2N2CCC3OCCC32)c1 (stereo not drawn) [Example 104, 2-(2,3,3a,5,6,6a-hexahydrofuro[3,2-b]pyrrol-4-yl)-N-(3-methylsulfonylphenyl)-5-(trifluoromethyl) pyridine-3-carboxamide]
9140	CN1Cc2ccc(NC(=O)c3cc(C(F)(F)F)cnc3N3CCCCCC3)cc2S1(=O)=O [Example 122, 2-(azepan-1-yl)-3-((2-methyl-1,1-dioxido-2,3-dihydrobenzo[d]isothiazol-6-yl)-carbamoyl)-5-(trifluoromethyl)pyridine]
119	NS(=O)(=O)c1cccc(NC(=O)c2cc(C(F)(F)F)cnc2N2CCC(F)(F)CC2)c1F [Example 170, 2-(4,4-difluoropiperidin-1-yl)-N-(2-fluoro-3-sulfamoylphenyl)-5-(trifluoromethyl)nicotinamide]
3770	NC(=O)c1cccc(NC(=O)c2cc(C(F)(F)F)cnc2N2CCCC(F)(F)C2)c1 [Example 110, N-(3-carbamoylphenyl)-2-(3,3-difluoro-1-piperidyl)-5-(tri-fluoromethyl)pyridine-3-carboxamide]
